Earlier results in patent US20050064023A1, “Compound” (priority 2001, published 2005).

Conditions: in combination with DOPE

Molecule	enhancement compared to the non-disulfide analogs	cellular toxicity compared to DC-Chol liposomes	transfection efficiency compared to DC-Chol liposomes
1,2-dioleyl-sn-glycero-3-succinyl-2-hydroxyethyl-disulfide omithine [DOGSDSO]	up to 50 times		
CC(C)CCC[C@@H](C)[C@H]1CC[C@H]2[C@@H]3CC=C4C[C@@H](OC(=O)CSSCC(=O)NCCN(CCN)CCN)CC[C@]4(C)[C@H]3CC[C@]12C [CHDTAEA, cholesteryl-hemi-dithio-diglycolyl-tris(aminoethyl)-amine]		decrease of cellular toxicity	increase of transfection efficiency
